Assay results as given in PMC5218480 (PLoS ONE, 2017).

Test system: MV-4-11 cells
Assay: Gene expression microarray analysis (Affymetrix PrimeView) and GSEA
Format: cell-based, human
Parameters: RFU PODN (11730768_x_at) / Fold change /veh PODN (11730768_x_at) / RFU LINC00158 (11744669_a_at) / Fold change /veh LINC00158 (11744669_a_at) / RFU DUSP10 (11751237_a_at) / Fold change /veh DUSP10 (11751237_a_at) / RFU ID3 (11757404_x_at) / Fold change /veh ID3 (11757404_x_at) / RFU PLEKHG5 (11737974_s_at) / Fold change /veh PLEKHG5 (11737974_s_at) / RFU LRRC4B (11730491_at) / Fold change /veh LRRC4B (11730491_at) / RFU GIMAP4 (11747438_a_at) / Fold change /veh GIMAP4 (11747438_a_at) / RFU KRT8 (11758183_x_at) / Fold change /veh KRT8 (11758183_x_at) / RFU CNN1 (11734310_a_at) / Fold change /veh CNN1 (11734310_a_at) / RFU VPS37D (11726825_at) / Fold change /veh VPS37D (11726825_at) / RFU C10orf10 (11716522_x_at) / Fold change /veh C10orf10 (11716522_x_at) / RFU KIR2DL2 /// KIR2DL4 /// KIR2DL5A /// KIR2DL5B /// KIR2DS1 /// KIR2DS2 /// KIR2DS3 /// KIR2DS4 /// KIR3DL3 /// KIR3DL3 /// KIR3DS1 (11738374_at) / Fold change /veh KIR2DL2 /// KIR2DL4 /// KIR2DL5A /// KIR2DL5B /// KIR2DS1 /// KIR2DS2 /// KIR2DS3 /// KIR2DS4 /// KIR3DL3 /// KIR3DL3 /// KIR3DS1 (11738374_at) / RFU C1QL1 (11718748_at) / Fold change /veh C1QL1 (11718748_at) / RFU TMPRSS4 (11747572_a_at) / Fold change /veh TMPRSS4 (11747572_a_at) / RFU HAMP (11756126_x_at) / Fold change /veh HAMP (11756126_x_at) / RFU RNFT2 (11725882_a_at) / Fold change /veh RNFT2 (11725882_a_at) / RFU NR4A2 (11747474_a_at) / Fold change /veh NR4A2 (11747474_a_at) / RFU ABCC12 (11746883_a_at) / Fold change /veh ABCC12 (11746883_a_at) / RFU TMEM136 (11760407_x_at) / Fold change /veh TMEM136 (11760407_x_at) / RFU CLDN22 /// WWC2 (11732394_at) / Fold change /veh CLDN22 /// WWC2 (11732394_at) / RFU HLA-DPB1 (11760878_x_at) / Fold change /veh HLA-DPB1 (11760878_x_at) / RFU SPINT1 (11716480_a_at) / Fold change /veh SPINT1 (11716480_a_at) / RFU GAP43 (11754022_s_at) / Fold change /veh GAP43 (11754022_s_at) / RFU A4GNT (11735810_at) / Fold change /veh A4GNT (11735810_at) / RFU PRB3 (11715151_x_at) / Fold change /veh PRB3 (11715151_x_at) / RFU TUBB4B (11761932_at) / Fold change /veh TUBB4B (11761932_at) / RFU CAPN14 (11732068_a_at) / Fold change /veh CAPN14 (11732068_a_at) / RFU TMCC2 (11721928_a_at) / Fold change /veh TMCC2 (11721928_a_at) / RFU IRGQ (11745062_a_at) / Fold change /veh IRGQ (11745062_a_at) / RFU FAM174B (11720279_a_at) / Fold change /veh FAM174B (11720279_a_at) / RFU TMPRSS4 (11748680_a_at) / Fold change /veh TMPRSS4 (11748680_a_at) / RFU FAM212B (11763350_a_at) / Fold change /veh FAM212B (11763350_a_at) / RFU PLEKHG5 (11743358_a_at) / Fold change /veh PLEKHG5 (11743358_a_at) / RFU ZSCAN30 (11745921_a_at) / Fold change /veh ZSCAN30 (11745921_a_at) / RFU CMKLR1 (11741424_a_at) / Fold change /veh CMKLR1 (11741424_a_at) / RFU LOC101060620 /// MAPK8IP1 (11723275_at) / Fold change /veh LOC101060620 /// MAPK8IP1 (11723275_at) / RFU SPTSSB (11747773_x_at) / Fold change /veh SPTSSB (11747773_x_at) / RFU PRSS12 (11739890_at) / Fold change /veh PRSS12 (11739890_at) / RFU BIN1 (11741810_x_at) / Fold change /veh BIN1 (11741810_x_at) / RFU WNT11 (11732464_a_at) / Fold change /veh WNT11 (11732464_a_at) / RFU C10orf10 (11716521_a_at) / Fold change /veh C10orf10 (11716521_a_at) / RFU C5orf56 (11738089_at) / Fold change /veh C5orf56 (11738089_at) / RFU CYB561 (11721691_x_at) / Fold change /veh CYB561 (11721691_x_at) / RFU ANKRD19P (11752326_a_at) / Fold change /veh ANKRD19P (11752326_a_at) / RFU OR2T12 /// OR2T33 /// OR2T8 (11738714_s_at) / Fold change /veh OR2T12 /// OR2T33 /// OR2T8 (11738714_s_at) / RFU VCAN (11748164_a_at) / Fold change /veh VCAN (11748164_a_at) / RFU JSRP1 (11732532_at) / Fold change /veh JSRP1 (11732532_at) / RFU KRTAP10-11 (11738290_x_at) / Fold change /veh KRTAP10-11 (11738290_x_at) / RFU MYO3A (11730013_a_at) / Fold change /veh MYO3A (11730013_a_at) / RFU EBF3 (11725865_a_at) / Fold change /veh EBF3 (11725865_a_at) / RFU CAMK2N1 (11719241_x_at) / Fold change /veh CAMK2N1 (11719241_x_at) / RFU C5orf56 (11738088_a_at) / Fold change /veh C5orf56 (11738088_a_at) / RFU OLFML3 (11715873_a_at) / Fold change /veh OLFML3 (11715873_a_at) / RFU LOC100653217 /// NTM (11731650_a_at) / Fold change /veh LOC100653217 /// NTM (11731650_a_at) / RFU MAPK11 (11762145_a_at) / Fold change /veh MAPK11 (11762145_a_at) / RFU FIZ1 (11724087_x_at) / Fold change /veh FIZ1 (11724087_x_at) / RFU OASL (11726364_x_at) / Fold change /veh OASL (11726364_x_at) / RFU SOX15 (11748057_x_at) / Fold change /veh SOX15 (11748057_x_at) / RFU CD79A (11719716_a_at) / Fold change /veh CD79A (11719716_a_at) / RFU HIST1H1D (11736915_at) / Fold change /veh HIST1H1D (11736915_at) / RFU CASKIN2 (11723855_a_at) / Fold change /veh CASKIN2 (11723855_a_at) / RFU LOC730098 (11760151_x_at) / Fold change /veh LOC730098 (11760151_x_at) / RFU OR4N2 (11742367_at) / Fold change /veh OR4N2 (11742367_at) / RFU PRRT2 (11749266_a_at) / Fold change /veh PRRT2 (11749266_a_at) / RFU SNX32 (11753110_a_at) / Fold change /veh SNX32 (11753110_a_at) / RFU CDHR5 (11726645_a_at) / Fold change /veh CDHR5 (11726645_a_at) / RFU RCAN1 (11760418_a_at) / Fold change /veh RCAN1 (11760418_a_at) / RFU FAM167A (11723789_a_at) / Fold change /veh FAM167A (11723789_a_at) / RFU FAM26E (11764081_at) / Fold change /veh FAM26E (11764081_at) / RFU ISYNA1 (11749810_s_at) / Fold change /veh ISYNA1 (11749810_s_at) / RFU ACY1 (11761880_at) / Fold change /veh ACY1 (11761880_at) / RFU 11764098_at / Fold change /veh 11764098_at / RFU SAMD14 (11745864_x_at) / Fold change /veh SAMD14 (11745864_x_at) / RFU NPB (11741838_a_at) / Fold change /veh NPB (11741838_a_at) / RFU TMPRSS6 (11731388_a_at) / Fold change /veh TMPRSS6 (11731388_a_at) / RFU KRTAP10-2 (11738614_at) / Fold change /veh KRTAP10-2 (11738614_at) / RFU ARHGAP8 /// PRR5-ARHGAP8 (11727945_x_at) / Fold change /veh ARHGAP8 /// PRR5-ARHGAP8 (11727945_x_at) / RFU KRTAP5-7 /// NADSYN1 (11734609_at) / Fold change /veh KRTAP5-7 /// NADSYN1 (11734609_at) / RFU RASL12 (11751679_a_at) / Fold change /veh RASL12 (11751679_a_at) / RFU CDKN2B (11736163_a_at) / Fold change /veh CDKN2B (11736163_a_at) / RFU PRF1 (11729649_at) / Fold change /veh PRF1 (11729649_at) / RFU, ZNF638 /// ZNF638-IT1 / Fold change vs veh, ZNF638 /// ZNF638-IT1 / RFU, PANK3 / Fold change vs veh, PANK3 / RFU, SH3YL1 / Fold change vs veh, SH3YL1 / RFU, ZEB2 / Fold change vs veh, ZEB2 / RFU, NRIP1 / Fold change vs veh, NRIP1 / RFU, PTTG1IP / Fold change vs veh, PTTG1IP / RFU, CAPN2 / Fold change vs veh, CAPN2 / RFU, MED14 / Fold change vs veh, MED14 / RFU, SNORA58 / Fold change vs veh, SNORA58 / RFU, C1orf63 / Fold change vs veh, C1orf63 / RFU, LRRFIP1 / Fold change vs veh, LRRFIP1 / RFU, NDUFAF7 / Fold change vs veh, NDUFAF7 / RFU, SLC12A2 / Fold change vs veh, SLC12A2 / RFU, IBTK / Fold change vs veh, IBTK / RFU, ESF1 / Fold change vs veh, ESF1 / Fold change vs veh, TMEM50B / RFU, TAOK1 / Fold change vs veh, TAOK1 / RFU, ACBD3 / Fold change vs veh, ACBD3 / RFU, TMA16 / Fold change vs veh, TMA16 / RFU, RWDD3 / Fold change vs veh, RWDD3 / RFU, BCAT1 / Fold change vs veh, BCAT1 / RFU, EDEM3 / Fold change vs veh, EDEM3 / RFU, TMEM33 / Fold change vs veh, TMEM33 / RFU, WDR75 / Fold change vs veh, WDR75 / RFU, AHCTF1 / Fold change vs veh, AHCTF1 / RFU, TFRC / Fold change vs veh, TFRC / RFU, ZDHHC17 / Fold change vs veh, ZDHHC17 / RFU, NOM1 / Fold change vs veh, NOM1 / RFU, ARL8B / Fold change vs veh, ARL8B / RFU, ZBTB11 / Fold change vs veh, ZBTB11 / RFU, TAMM41 / Fold change vs veh, TAMM41 / RFU, KIAA1704 /// LOC100996395 / Fold change vs veh, KIAA1704 /// LOC100996395 / RFU, ING1 / Fold change vs veh, ING1 / RFU, TRMT61B / Fold change vs veh, TRMT61B / RFU, FUBP3 / Fold change vs veh, FUBP3 / RFU, TP53 / Fold change vs veh, TP53 / RFU, TNKS2 / Fold change vs veh, TNKS2 / RFU, ZFP14 / Fold change vs veh, ZFP14 / RFU, ACTR2 / Fold change vs veh, ACTR2 / RFU, PPP3R1 / Fold change vs veh, PPP3R1 / RFU, PIK3R1 / Fold change vs veh, PIK3R1 / RFU, HNRNPA1 / Fold change vs veh, HNRNPA1 / RFU, RNF170 / Fold change vs veh, RNF170 / RFU, ZNF28 / Fold change vs veh, ZNF28 / RFU, RNGTT / Fold change vs veh, RNGTT / RFU, OGT / Fold change vs veh, OGT / RFU, BRD1 / Fold change vs veh, BRD1 / RFU, MARS / Fold change vs veh, MARS / RFU, ZNF655 / Fold change vs veh, ZNF655 / RFU, FAHD1 / Fold change vs veh, FAHD1 / RFU, BDP1 / Fold change vs veh, BDP1 / RFU, LRRCC1 / Fold change vs veh, LRRCC1 / RFU, ARID1A / Fold change vs veh, ARID1A / RFU, ZNF146 / Fold change vs veh, ZNF146 / RFU, ZNF330 / Fold change vs veh, ZNF330 / RFU, GPN3 / Fold change vs veh, GPN3 / RFU, C9orf123 / Fold change vs veh, C9orf123 / RFU, N4BP2L2 / Fold change vs veh, N4BP2L2 / RFU, ARFIP1 / Fold change vs veh, ARFIP1 / RFU, FAM179B / Fold change vs veh, FAM179B / RFU, BCL10 / Fold change vs veh, BCL10 / RFU, UHRF1BP1L / Fold change vs veh, UHRF1BP1L / RFU, BET1 / Fold change vs veh, BET1 / RFU, CNOT2 / Fold change vs veh, CNOT2 / RFU, ZNF268 / Fold change vs veh, ZNF268 / Fold change vs veh, ZNF507 / RFU, DGCR2 / Fold change vs veh, DGCR2 / RFU, WDSUB1 / Fold change vs veh, WDSUB1 / Fold change vs veh, HSP90B1 /// MIR3652 / RFU, ADSS / Fold change vs veh, ADSS / RFU, GK / Fold change vs veh, GK / RFU, ZNF148 / Fold change vs veh, ZNF148 / RFU, TAF9 / Fold change vs veh, TAF9 / RFU, SLC1A5 / Fold change vs veh, SLC1A5 / RFU, SLMO2 / Fold change vs veh, SLMO2 / RFU, ABCC4 / Fold change vs veh, ABCC4 / RFU, LOC101060439 /// RAP1B / Fold change vs veh, LOC101060439 /// RAP1B / RFU, RFX7 / Fold change vs veh, RFX7 / RFU, GTPBP10 / Fold change vs veh, GTPBP10 / RFU, CNEP1R1 / Fold change vs veh, CNEP1R1 / RFU, BIVM-ERCC5 /// ERCC5 / Fold change vs veh, BIVM-ERCC5 /// ERCC5 / RFU, ILF3 / Fold change vs veh, ILF3 / RFU 11762660_at / Fold change /veh 11762660_at / RFU VCAN (11757783_s_at) / Fold change /veh VCAN (11757783_s_at) / RFU DDX43 (11728927_at) / Fold change /veh DDX43 (11728927_at) / RFU KRT8 (11758188_x_at) / Fold change /veh KRT8 (11758188_x_at) / RFU NKD1 (11759106_at) / Fold change /veh NKD1 (11759106_at) / RFU SRD5A1 (11742802_a_at) / Fold change /veh SRD5A1 (11742802_a_at) / RFU TPSAB1 /// TPSB2 (11721975_s_at) / Fold change /veh TPSAB1 /// TPSB2 (11721975_s_at) / RFU GSTM3 (11746129_a_at) / Fold change /veh GSTM3 (11746129_a_at) / RFU IL23R (11737362_x_at) / Fold change /veh IL23R (11737362_x_at) / RFU TMEM51 (11727254_a_at) / Fold change /veh TMEM51 (11727254_a_at) / RFU PIWIL2 (11732686_x_at) / Fold change /veh PIWIL2 (11732686_x_at) / RFU ORM1 (11744905_x_at) / Fold change /veh ORM1 (11744905_x_at) / RFU CCDC152 (11743942_at) / Fold change /veh CCDC152 (11743942_at) / RFU ECM1 (11717891_a_at) / Fold change /veh ECM1 (11717891_a_at) / RFU IL23R (11748794_a_at) / Fold change /veh IL23R (11748794_a_at) / RFU TNFAIP8L3 (11732012_x_at) / Fold change /veh TNFAIP8L3 (11732012_x_at) / RFU MBOAT4 (11741988_at) / Fold change /veh MBOAT4 (11741988_at) / RFU 11764193_at / Fold change /veh 11764193_at / RFU TMEM53 (11763286_at) / Fold change /veh TMEM53 (11763286_at) / RFU MAGEB2 (11727129_at) / Fold change /veh MAGEB2 (11727129_at) / RFU TMEM200A (11744735_a_at) / Fold change /veh TMEM200A (11744735_a_at) / RFU CCDC152 (11751479_a_at) / Fold change /veh CCDC152 (11751479_a_at) / RFU FAM211A (11726209_a_at) / Fold change /veh FAM211A (11726209_a_at) / RFU RGS16 (11746705_a_at) / Fold change /veh RGS16 (11746705_a_at) / RFU VCAN (11755009_s_at) / Fold change /veh VCAN (11755009_s_at) / RFU RHOB (11743442_s_at) / Fold change /veh RHOB (11743442_s_at) / RFU RGS16 (11720943_a_at) / Fold change /veh RGS16 (11720943_a_at) / RFU RGS16 (11720944_at) / Fold change /veh RGS16 (11720944_at) / RFU, VPS4B / Fold change vs veh, VPS4B / RFU, CREB1 / Fold change vs veh, CREB1 / RFU, DNAJC13 / Fold change vs veh, DNAJC13 / RFU, GNAQ / Fold change vs veh, GNAQ / RFU, CDK5R1 / Fold change vs veh, CDK5R1 / RFU, ZRANB3 / Fold change vs veh, ZRANB3 / RFU, CUL4A / Fold change vs veh, CUL4A / RFU, CCNY / Fold change vs veh, CCNY / RFU, UFL1 / Fold change vs veh, UFL1 / RFU, COG3 / Fold change vs veh, COG3 / RFU, DIAPH2 / Fold change vs veh, DIAPH2 / RFU, SKA2 / Fold change vs veh, SKA2 / RFU, AFF3 / Fold change vs veh, AFF3 / RFU, LMF1 / Fold change vs veh, LMF1 / RFU, IPO11 / Fold change vs veh, IPO11 / RFU, DFFB / Fold change vs veh, DFFB / RFU, FOXP1 / Fold change vs veh, FOXP1 / RFU, CARD8 / Fold change vs veh, CARD8 / RFU, STRN3 / Fold change vs veh, STRN3 / RFU, ADK / Fold change vs veh, ADK / RFU, RASSF2 / Fold change vs veh, RASSF2 / RFU, WIPF1 / Fold change vs veh, WIPF1 / RFU, LARP1B / Fold change vs veh, LARP1B / RFU, RASA1 / Fold change vs veh, RASA1 / RFU, RB1 / Fold change vs veh, RB1 / RFU, PPFIA1 / Fold change vs veh, PPFIA1 / RFU, MAT2A / Fold change vs veh, MAT2A / RFU, CCT5 / Fold change vs veh, CCT5 / RFU, WDR92 / Fold change vs veh, WDR92 / RFU, CUX1 / Fold change vs veh, CUX1 / RFU, TTC7A / Fold change vs veh, TTC7A / RFU, TMEM135 / Fold change vs veh, TMEM135 / RFU, DEPTOR / Fold change vs veh, DEPTOR / RFU, CPM / Fold change vs veh, CPM / RFU, DNAJB6 / Fold change vs veh, DNAJB6 / RFU, CACNA2D3 / Fold change vs veh, CACNA2D3 / RFU, DTX4 / Fold change vs veh, DTX4 / RFU, TFCP2 / Fold change vs veh, TFCP2 / RFU, GMCL1 /// GMCL1P1 / Fold change vs veh, GMCL1 /// GMCL1P1 / RFU, AEBP2 / Fold change vs veh, AEBP2 / RFU, SNHG1 /// SNORD22 /// SNORD25 /// SNORD26 /// SNORD27 /// SNORD28 /// SNORD29 /// SNORD31 / Fold change vs veh, SNHG1 /// SNORD22 /// SNORD25 /// SNORD26 /// SNORD27 /// SNORD28 /// SNORD29 /// SNORD31 / Fold change (Aza/veh), C12orf56 (ProbeSet 11735607_a_at) / Fold change (ACY-1035/veh), C12orf56 (ProbeSet 11735607_a_at) / Fold change (Aza/veh), FGFR1OP (ProbeSet 11751329_s_at) / Fold change (ACY-1035/veh), FGFR1OP (ProbeSet 11751329_s_at) / Fold change (Aza/veh), VPS36 (ProbeSet 11739960_a_at) / Fold change (ACY-1035/veh), VPS36 (ProbeSet 11739960_a_at) / RFU SYPL1 (11715823_x_at) / Fold change /veh SYPL1 (11715823_x_at) / RFU IGFBP7 (11715501_s_at) / Fold change /veh IGFBP7 (11715501_s_at) / RFU REEP3 (11722064_at) / Fold change /veh REEP3 (11722064_at) / RFU IGLL1 (11728026_x_at) / Fold change /veh IGLL1 (11728026_x_at): dose or concentration left out as unconfirmed
Details: ProbeSet 11732277_a_at; LIST D

## Nc1ncn([C@@H]2O[C@H](CO)[C@@H](O)[C@H]2O)c(=O)n1 [azacitidine]
  RFU, FOXP1: 363.93 RFU
